Data published in paper PMC3125149, “SCYX-7158, an Orally-Active Benzoxaborole for the Treatment of Stage 2 Human African Trypanosomiasis” (PLoS Neglected Tropical Diseases, 2011).
Where two headings read alike, the source gives them in different places.

Columns and labels:
[1] = system: L929 mouse fibroblast cells; assay: Mammalian cell cytotoxicity; assay type: cell-based
Procedure: T. b. brucei was cultured in complete HMI-9 medium,[20] which contains 10% fetal bovine serum (FBS) (Invitrogen, Carlsbad, CA), 10% Serum Plus medium (SAFC Biosciences, Lenexa, KS), and 100 units/mL penicillin and 0.1 mg/mL streptomycin. The trypanosomes were propagated in T-25 vented cap flasks (Corning Inc., Lowell, MA) at 37°C and 5% CO2 with humidity. To ensure log growth phase, trypanosomes were sub-cultured at appropriate dilutions (typically 1∶100) every 2–3 days in fresh HMI-9 medium. T. b. rhodesiense parasites were grown in MEM medium with Earle's salts supplemented with 15% horse serum. For T. b. gambiense, the MEM medium was supplemented with 5% heat-inactivated fetal calf serum (FCS) and 15% human serum.[21] L929 mouse fibroblast cells (ATCC CCL1, American Type Culture Collection, Rockville, MD) were used to determine parasite versus mammalian cell selectivity. Cells were cultured in Dulbecco's Modified Eagle Medium (DMEM), supplemented with 10% FBS, L-glutamine and 100 units/mL penicillin and 0.1 mg/mL streptomycin. MDCKII-hMDR1 cells were generously provided by P. Borst at the Netherlands Kancer Institute. Cells were cultured in DMEM with Glutamax, 10% (v/v) FBS, and 100 units/mL penicillin and 0.1 mg/mL streptomycin. Cell monolayers were fed with cell culture media 24 h after seeding and used for permeability studies 3 days later. […]

hERG potassium channel = hERG potassium channel (Homo sapiens, UniProt Q12809); assay: hERG radioligand binding assay; conditions: at 10 µM
Sequence of hERG potassium channel (Q12809 whole entry): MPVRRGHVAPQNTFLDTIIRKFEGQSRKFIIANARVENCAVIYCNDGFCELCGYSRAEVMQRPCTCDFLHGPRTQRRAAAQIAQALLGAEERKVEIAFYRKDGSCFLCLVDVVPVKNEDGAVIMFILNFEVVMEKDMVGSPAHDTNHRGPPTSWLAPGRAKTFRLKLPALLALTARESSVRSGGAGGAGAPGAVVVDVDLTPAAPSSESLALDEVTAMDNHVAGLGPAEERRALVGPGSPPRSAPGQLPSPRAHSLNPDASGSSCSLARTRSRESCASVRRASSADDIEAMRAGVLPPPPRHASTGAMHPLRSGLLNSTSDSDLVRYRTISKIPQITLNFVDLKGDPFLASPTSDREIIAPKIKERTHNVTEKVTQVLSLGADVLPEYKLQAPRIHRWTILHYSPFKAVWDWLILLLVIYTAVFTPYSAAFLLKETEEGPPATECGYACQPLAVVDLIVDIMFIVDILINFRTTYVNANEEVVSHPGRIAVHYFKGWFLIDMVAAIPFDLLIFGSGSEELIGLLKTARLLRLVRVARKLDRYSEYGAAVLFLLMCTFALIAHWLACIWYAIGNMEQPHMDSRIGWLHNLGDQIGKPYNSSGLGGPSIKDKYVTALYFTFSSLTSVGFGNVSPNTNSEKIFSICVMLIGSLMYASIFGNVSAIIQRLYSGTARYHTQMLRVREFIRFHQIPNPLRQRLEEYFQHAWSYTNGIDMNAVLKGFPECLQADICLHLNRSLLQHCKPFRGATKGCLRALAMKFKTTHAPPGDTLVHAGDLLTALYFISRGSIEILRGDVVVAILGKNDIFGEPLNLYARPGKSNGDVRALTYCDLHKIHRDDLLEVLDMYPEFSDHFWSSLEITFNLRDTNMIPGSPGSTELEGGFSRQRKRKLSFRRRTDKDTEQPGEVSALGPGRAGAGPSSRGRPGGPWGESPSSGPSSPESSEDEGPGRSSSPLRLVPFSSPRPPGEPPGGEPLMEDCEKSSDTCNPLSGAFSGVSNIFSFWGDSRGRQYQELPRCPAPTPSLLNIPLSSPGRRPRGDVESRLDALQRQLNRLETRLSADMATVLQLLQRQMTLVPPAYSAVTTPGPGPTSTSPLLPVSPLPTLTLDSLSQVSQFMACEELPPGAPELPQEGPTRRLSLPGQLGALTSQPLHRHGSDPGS

[2] = biological target: T1, MDCKII-hMDR1 cells (P-glycoprotein) (Homo sapiens, UniProt P08183); assay: MDCKII-hMDR1 monolayer permeability and P-gp efflux; assay type: in vitro ADME
T1 construct: expressed in transfected cells; host or cells: MDCKII (canine kidney) cells, provided by P. Borst
T1 sequence (P08183 whole entry): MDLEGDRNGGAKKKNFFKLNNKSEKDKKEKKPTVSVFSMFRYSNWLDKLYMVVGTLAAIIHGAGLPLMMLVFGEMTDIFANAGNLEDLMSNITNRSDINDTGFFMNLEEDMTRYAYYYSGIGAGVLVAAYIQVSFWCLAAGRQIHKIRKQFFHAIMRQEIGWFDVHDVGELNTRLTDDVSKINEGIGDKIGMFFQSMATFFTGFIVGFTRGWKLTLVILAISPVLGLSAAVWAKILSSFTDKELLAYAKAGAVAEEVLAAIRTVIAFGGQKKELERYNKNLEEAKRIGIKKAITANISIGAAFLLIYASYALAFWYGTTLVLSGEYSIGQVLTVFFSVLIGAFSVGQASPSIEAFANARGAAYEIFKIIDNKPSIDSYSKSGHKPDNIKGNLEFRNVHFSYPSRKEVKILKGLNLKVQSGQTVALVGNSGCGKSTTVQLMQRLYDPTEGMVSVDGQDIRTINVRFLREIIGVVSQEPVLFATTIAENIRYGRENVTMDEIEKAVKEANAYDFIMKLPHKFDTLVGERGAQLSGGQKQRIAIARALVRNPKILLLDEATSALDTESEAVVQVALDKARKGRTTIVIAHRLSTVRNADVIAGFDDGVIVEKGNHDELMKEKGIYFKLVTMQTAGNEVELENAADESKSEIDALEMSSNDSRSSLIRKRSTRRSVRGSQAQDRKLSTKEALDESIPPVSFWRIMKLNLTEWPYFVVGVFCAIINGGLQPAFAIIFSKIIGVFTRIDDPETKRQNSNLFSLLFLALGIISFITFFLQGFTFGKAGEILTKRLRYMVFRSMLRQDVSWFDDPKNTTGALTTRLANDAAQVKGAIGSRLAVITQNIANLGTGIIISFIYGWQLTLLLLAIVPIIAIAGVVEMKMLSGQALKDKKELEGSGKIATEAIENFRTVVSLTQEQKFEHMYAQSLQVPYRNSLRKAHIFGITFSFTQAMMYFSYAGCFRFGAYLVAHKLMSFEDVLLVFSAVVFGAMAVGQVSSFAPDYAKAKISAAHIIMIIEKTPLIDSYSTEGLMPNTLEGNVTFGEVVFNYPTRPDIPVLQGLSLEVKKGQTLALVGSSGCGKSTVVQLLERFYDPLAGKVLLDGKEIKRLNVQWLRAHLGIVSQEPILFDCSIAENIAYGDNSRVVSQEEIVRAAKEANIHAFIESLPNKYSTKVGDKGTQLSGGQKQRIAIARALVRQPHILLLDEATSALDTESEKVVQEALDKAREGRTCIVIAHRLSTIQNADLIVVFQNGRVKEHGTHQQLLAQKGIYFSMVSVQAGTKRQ
Procedure: (§1) T. b. brucei was cultured in complete HMI-9 medium,[20] which contains 10% fetal bovine serum (FBS) (Invitrogen, Carlsbad, CA), 10% Serum Plus medium (SAFC Biosciences, Lenexa, KS), and 100 units/mL penicillin and 0.1 mg/mL streptomycin. The trypanosomes were propagated in T-25 vented cap flasks (Corning Inc., Lowell, MA) at 37°C and 5% CO2 with humidity. To ensure log growth phase, trypanosomes were sub-cultured at appropriate dilutions (typically 1∶100) every 2–3 days in fresh HMI-9 medium. T. b. rhodesiense parasites were grown in MEM medium with Earle's salts supplemented with 15% horse serum. For T. b. gambiense, the MEM medium was supplemented with 5% heat-inactivated fetal calf serum (FCS) and 15% human serum.[21] L929 mouse fibroblast cells (ATCC CCL1, American Type Culture Collection, Rockville, MD) were used to determine parasite versus mammalian cell selectivity. Cells were cultured in Dulbecco's Modified Eagle Medium (DMEM), supplemented with 10% FBS, L-glutamine and 100 units/mL penicillin and 0.1 mg/mL streptomycin. MDCKII-hMDR1 cells were generously provided by P. Borst at the Netherlands Kancer Institute. Cells were cultured in DMEM with Glutamax, 10% (v/v) FBS, and 100 units/mL penicillin and 0.1 mg/mL streptomycin. Cell monolayers were fed with cell culture media 24 h after seeding and used for permeability studies 3 days later.
(§2) The propensity of the compound to cross the blood-brain barrier was examined using an in vitro MDCKII-hMDR1 transwell assay.[24] MDCKII-hMDR1 cells were seeded at density of 3×10^5 cells per well onto microporous polycarbonate membranes in 12 well Costar Transwell plates (Corning Inc., Lowell, MA). The cells were used for permeability studies 3 days later. Trans-epithelial resistance (TEER) was measured for each insert to ensure the integrity of the monolayer (acceptable TEER >50 Ωcm^2).
(§3) The permeability and propensity for P-gp-mediated efflux was evaluated by adding each compound at a concentration of 3 µM, in the presence or absence of 2 µM GF120918, to the apical compartment. Competency of the P-gp efflux transporter was confirmed by assay of propranolol (non-substrate) and amprenavir (substrate). Cell monolayers were incubated in triplicate with shaking (160 rpm) at 37°C in a 5% CO2-enriched humidified atmosphere for 1 h. Samples were removed from the apical and basolateral compartments after incubation and assayed for test compound concentrations by LC-MS/MS. Values for mass balance, PappA→B, PappA→B+GF918, and absorption quotient (AQ) were calculated for each compound.[25], [26], [27] Acceptance criterion for mass balance was 70–120%.

[3] = biological target: T2, P-glycoprotein (human MDR1) (Homo sapiens, UniProt P08183); assay: as above; assay type: in vitro ADME; conditions: dog
T2 construct: expressed in transfected cells; host or cells: MDCKII (canine kidney) cells, provided by P. Borst
T2 sequence (P08183 whole entry): as above
Procedure: as §1, §2, §3

[4] = In vivo pharmacokinetic characterization (abstract summary); set-up: species or system rodents
Procedure: The blood distribution, CNS disposition and pharmacokinetics of SCYX-7158 were evaluated in infected or non-infected rodents following intravenous or oral administration of compounds. Pharmacokinetics and bioavailability of SCYX-7158 were also evaluated in non-infected beagle dogs and cynomolgus monkeys. In-life phases of non-infected rodent studies were performed at Vivisource (Waltham, MA); studies in non-naïve cynomolgus monkeys were performed by SNBL USA (Everett, WA).
Male CD-1 mice (∼25 g), male Sprague-Dawley rats (∼225 g), or male cynomolgus monkeys (∼3–5 kg) were administered test article by either bolus intravenous injection (IV) or oral gavage. Animals in the IV groups received a single 2 mg/kg IV dose. Animals received oral doses of test articles as either single or twice daily doses ranging from 8 mg/kg to 50 mg/kg. All doses were administered as clear colorless solutions in either 50% (v/v) PEG 400: 20% (v/v) ethanol: 30% (v/v) carboxymethylcellulose (0.5% w/v in sterile water for injection) or 2% (v/v) ethanol: 5% (w/v) dextrose in sterile water for injection. Doses were administered in a volume of 4 mL/kg, 2 mL/kg or 1 mL/kg for mice, rats and cynomolgus monkeys, respectively. For pharmacokinetic analysis, blood samples were collected from mice via cardiac puncture under terminal anaesthesia. Serial blood samples were collected from rats via a vascular access port located in the lateral saphenous vein. Mice and rats were euthanized in a CO2 chamber before collection of terminal blood samples or brain tissue. Blood samples were collected into polypropylene tubes containing K2EDTA anticoagulant and stored on ice until centrifuged for the preparation of plasma. Plasma was stored at −70°C. Whole brains were collected following decapitation, blotted dry, placed into polypropylene containers and then immediately frozen at approximately −70°C. CSF was collected from rats via cisterna magna puncture, placed in sterile polypropylene tubes, and stored at approximately −70°C.

CC1(C)OB(O)c2cc(NC(=O)c3ccc(F)cc3C(F)(F)F)ccc21 [SCYX-7158]
IC50 ([1]; Mouse L929 fibroblast, n = 4): > 50 µg/mL | inhibition of cell proliferation ([1]; drug concentrations up to 50 µg/mL): no significant inhibition | binding to hERG channel (hERG potassium channel): −6% | AQ (absorption quotient) ([2]; calculated from Papp with and without GF120918): 0.09 | P-gp substrate status ([2]; from AQ): not a P-gp substrate | Papp A→B at 1 h, 3 µM ([3]; MDCK-MDR1, with GF120918 2 µM, in presence of P-gp inhibitor GF120918 (2 µM), read-out: Papp A→B + GF120918): 85.3 ×10⁻⁶ cm/s | Papp A→B at 1 h, 3 µM ([3]; MDCK-MDR1, apical to basolateral, 3 µM (1.1 µg/mL), 1 h, read-out: Papp A→B): 77.6 ×10⁻⁶ cm/s | half-life ([4]; male, rodents and non-human primates, plasma, read-out: elimination half-life (converted)): 24 h | brain AUC0–24 hr ([4]; rodents, 25 mg/kg oral dose): > 100000 ng·h/mL | brain Cmax ([4]; rodents, 25 mg/kg oral dose): > 10000 ng/mL
